# A melting point compilation (Tetko et al.; mined from patent text by program, amines drawn as free bases though some values may be those of a salt)
row,Compound,melting point
1,COc1cc(OC)nc(NC(=O)NS(=O)(=O)c2c([Si](C)(C)C)ccc3c2S(=O)(=O)C(C)C3)n1 (stereo not drawn),188 to 190 °C
2,Cc1cc2c(cc1C)-n1ccnc1C=C(c1ccc(-n3c(C)nc4cnccc43)cc1)N2,193 to 195 °C
3,CCc1ccc(-c2ccc3c(c2)C=C(C(=O)Nc2ccc(CN(C)C4CCOCC4)cc2)CCS3(=O)=O)cc1,257 to 260 °C
4,COc1ccccc1N1CCN(S(=O)(=O)c2ccc(Nc3ccnc4cc(C(F)(F)F)ccc34)cc2)CC1,146 to 148 °C
5,COC(=O)Nc1ccc(OCc2nc3ccccc3s2)c(Cl)c1,133 to 135 °C
6,CC(F)C1C(=O)NC1CC(=O)OCc1ccccc1 (mixture of isomers),40 to 43 °C
7,CNC(=O)NC1(C)CCCc2sccc21 (stereo not drawn),135 to 145 °C
8,CN1C(=O)CN(N=Cc2ccccc2)C(c2ccccc2)c2cc(Cl)ccc21 (stereo not drawn),157 to 158 °C
9,"CCCCC1CCC(CC(=O)c2ccc(-c3ccc(CC(C)CC)cc3F)cc2)CC1 (single isomer, unassigned; (+))",71.4 to 72.1 °C
10,COC(=O)c1cc(C)cc(C=O)c1,71 to 73 °C
11,O=[N+]([O-])c1cc(Br)c(NS(=O)(=O)c2ccccc2)cc1Br,148 °C
12,COC(=O)c1cn(-c2cc(C(=O)OC)c([N+](=O)[O-])cc2C(F)(F)F)cn1,136 to 138 °C
13,CCOC(=O)c1ccc2nc3c(c(=O)n2c1)CSC3,183 to 185 °C
14,CC(C)(C)OC(=O)c1ccc(C=NON)cc1,153 to 155 °C
15,CCCCCCCCCCCCCc1c(C(F)(F)F)noc1NS(=O)(=O)c1ccc(-c2ccccc2)cc1,115 to 116 °C
16,CCC(CC)N1COCc2c1cc(C)nc2Oc1c(C)cc(C)cc1C,112 to 114 °C
17,Cc1ccc2ccc(=O)oc2c1C,122 to 123 °C
18,COC(=O)c1ccccc1C1NC(=S)C(C)(C(C)C)N1 (stereo not drawn),115 to 121 °C
19,COc1cc2c(Nc3ccc(Cl)cc3F)ncnc2cc1OCCN1CCSCC1,181 to 182 °C
20,O=CN1CCC(C(=O)N2CCN3C(=O)OC(c4ccccc4)(c4ccccc4)C3C2)CC1 (stereo not drawn),133 to 136 °C
21,CC(C)(C)c1cc(CCCBr)cc(C(C)(C)C)c1O,52 to 54 °C
22,CC1(C)Oc2ccc(-c3c(O)c(=O)c3=O)cc2[C@@H](N2Cc3ccccc3C2=O)[C@@H]1O (relative stereo),> 250 °C
23,COc1ccnc2c1c(C(C)=O)cn2C,79 to 81 °C
24,NC(=O)c1nc(-c2cccc(O)c2)nc2c1[nH]c(=O)n2[C@H]1CC[C@H](O)CC1,355 to 357 °C

row,Compound,melting point
1,COC(=O)Nc1nc2cc(S(=O)CC3(C)CC3(Cl)Cl)ccc2[nH]1 (stereo not drawn),231 to 233 °C
2,CCOC(=O)C(CCCCCN1C(=O)c2ccccc2C1=O)(NC(C)=O)C(=O)OCC,70 to 72 °C
3,COc1cc(F)c(C)cc1C#N,99 to 101 °C
4,CCCc1nnc2c(N(CC)CC)nc3ccccc3n12,92 to 94 °C
5,O=C1CCC(N2C(=O)c3cccc(CNC(=O)c4cnccn4)c3C2=O)C(=O)N1 (stereo not drawn),> 260 °C
6,Cc1cc(C)c(C(=O)P(=O)(CC(C)C)C(=O)c2c(C)cc(C)cc2C)c(C)c1,85 to 86 °C
7,N#Cc1ccc(CN2C(=O)C3(COc4cc5c(cc43)OCCO5)c3ccccc32)cc1 (stereo not drawn),69 to 72 °C
8,CC(C)n1cc(-c2nn(-c3cccc(C(F)(F)F)c3)ccc2=O)c(-c2ccccc2)n1,138 to 140 °C
9,O=[N+]([O-])CC1C2(CCCC1(c1ccccc1)c1ccccc1)OCCO2 (racemic),148 °C
10,Cn1cncc1C(O)(c1ccc(Cl)cc1)c1ccc2c(c1)c(-c1cccc(Cl)c1)cc(=O)n2C (stereo not drawn),234 °C
11,COC(=O)c1cccc(C2C(C#N)=C(N)Oc3c2ccc2cnccc32)c1 (stereo not drawn),229 to 230 °C
12,CNC(=O)c1cc(F)c(Cl)cc1Oc1cccc(OC)c1C,127 to 128 °C
13,FC(F)(F)c1ccc(Cl)cc1CN1CCNc2ncc(I)cc21,189 to 191 °C
14,CC(C)c1cc(C(C)C)c(CC(=O)NS(=O)(=O)Oc2c(C(C)C)cc(N)cc2C(C)C)c(C(C)C)c1,153 to 155 °C
15,CN(C(=O)CCCOc1ccc2c(c1)CN(CC(=O)O)C(N)=N2)C1CCCCC1,125 to 128 °C
16,COc1ccc(C(=O)NCCCN(CCCNC(=O)c2ccc(OC)cc2)C(=O)c2ccc(OC)cc2)cc1,117 to 119 °C
17,O=C(OCCOCc1ccccc1)n1c(-c2cscn2)nc2ccccc21,93 to 95 °C
18,N#Cc1ccc(N2C(=O)NC3(CCS(=O)CC3)C2=O)cc1C(F)(F)F (stereo not drawn),260 to 277 °C
19,CCCCC(CC)CNC(=O)c1cc(C(C)(C)C)c(O)c(C(C)(C)C)c1 (stereo not drawn),136 to 140 °C
20,Cc1cc(Br)cnc1CCCCN=C(NCCCc1c[nH]cn1)NC(=O)c1ccccc1,126 to 128 °C
21,CS(=O)(=O)C(=C1CN(C(c2ccccc2)c2ccccc2)C1)c1ccccc1F,188 °C
22,Cn1c(-c2ccc(F)cc2)cc(=O)c(C(=O)O)c1-c1ccc(F)cc1,191 to 193 °C
23,COc1ccc(C(=O)NCCCCCCCNC(=O)c2ccc(OC)cc2)cc1,157 to 159 °C
24,CCOC(=O)N=C1N(c2c(C)cccc2C)CC(C)N1c1c(C)cccc1C (stereo not drawn),124 to 125 °C
